Source: patent publication US11377425B1, “Small molecule modulators of IL-17” (LEO Pharma A/S, priority 2018, dated 2022)

What follows are compounds tested against T1, human IL-17AA (Homo sapiens, UniProt Q16552) (assay: IL-8 release assay in human epithelial keratinocytes adult (HEKa)). Conditions: HEKa cells, 3 ng/mL HEK-human IL-17AA + 10 ng/mL human TNFalpha; read-out: Rel EC50 IL-8 release assay.
T1 construct: host or cells: HEK (human embryonic kidney) cells
T1 sequence (Q16552 24-155): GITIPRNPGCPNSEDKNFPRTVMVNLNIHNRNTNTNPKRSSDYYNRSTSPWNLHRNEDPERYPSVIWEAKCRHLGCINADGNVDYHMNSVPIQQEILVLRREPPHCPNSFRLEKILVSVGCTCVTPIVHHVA
Assay type: cell-based
Method: Example 138: IL-8 Release Assay in Human Epithelial Keratinocytes Adult (HEKa)
Keratinocytes were seeded at 3500 cells/well in 384-well ViewPlates (Perkin Elmer) in Epilife medium (Thermo Fisher) containing human keratinocyte growth supplement (HKGS) without hydrocortisone and incubated in a humid incubator at 37° C. 5% CO2, overnight. The following day growth medium was removed and 25 μl fresh Epilife medium added. 75 nL test compound in 100% DMSO was added into each well reserved for test compounds, by the use of acoustic pipetting. The remaining wells received an equal volume of DMSO only, as vehicle control, or terfenadine in DMSO, as a positive control for any cytotoxic compounds. Subsequently, another 25 μL Epilife medium was added to each well. Finally, wells containing test compounds and wells prepared to yield maximum stimulation received […] of 9 ng/mL recombinant, human embryonic kidney cell (HEK)-derived human IL-17AA+30 ng/mL human TNF-alpha, in Epilife medium. Wells prepared to define 100% inhibition of IL-17 effects received 25 μL of 30 ng/mL human TNF-alpha alone, in Epilife medium. Final concentrations were 3 ng/mL HEK-human IL-17AA+10 ng/mL human TNFalpha (maximum stimulation) and 10 ng/mL human TNFalpha alone (100% inhibition, Emax), respectively. Cells were incubated for 68-72 hours in the incubator. IL-8 released from the cells was measured by the use of a commercial homogenous time-resolved fluorescence (HTRF) assay (CisBio). 2 μL cell culture supernatant was transferred to a 384-well Proxiplate. 5 μL HTRF reagent was added and the plates incubated sealed in the dark for 3-22 hours at room temperature. Time-resolved fluorescence was read at 665 vs 620 nm, with excitation at 320 nm, and IL-8 levels calculated as percent of controls. Reduction of the amount of secreted IL-8 indicates decreased IL-17 signaling. Concentration response curves were fitted by the use of a four-parameter logistic equation. Relative IC50 and Emax were reported from curves showing acceptable fit (r^2>0.9). Cytotoxicity was measured in the cell-containing Viewplates following addition of 7 μL PrestoBlue (Thermo Fisher) and incubation for 2.5-3 hours at room temperature, by measuring fluorescence at 615 nm (excitation at 535 nm). Fluorescence was directly proportional to the amount of metabolic activity. Reduction of fluorescence signal indicated cytotoxicity.
Compounds of the present invention were tested in the IL-8 release assay in human epithelial keratinocytes.
Compounds having a Relative EC50 of X; wherein X<100 nM; are indicated with *
Compounds having a Relative EC50 of X; wherein 100 nM<X<1000 nM; are indicated with **
Compounds having a Relative EC50 of X; wherein 1000 nM<X; are indicated with ***

`Cc1[nH]nc(CO)c1-c1ccc(NC(=O)[C@@H](NC(=O)OC(C)(C)C)C(c2ccccc2)c2ccccc2)cc1` [Example 437, tert-butyl N-[(1S)-1-benzhydryl-2-[4-[5-(hydroxymethyl)-3-methyl-1H-pyrazol-4-yl]anilino]-2-oxo-ethyl]carbamate] and `Cc1ncn(C)c1-c1ccc(NC(=O)[C@@H](NC(=O)OC2CC2)C(c2ccccc2)c2ccccc2)cc1` [Example 423, Cyclopropyl N-[(1S)-1-benzhydryl-2-[4-(3,5-dimethylimidazol-4-yl)anilino]-2-oxo-ethyl]carbamate] fall in the same range of EC50: 100 to 1000 nM for the first, 100 to 1000 nM for the second.

`Cc1n[nH]c(C)c1-c1ccc(NC(=O)[C@@H](NC(=O)c2cncn2C)C2CCCCC2)cc1` [Example 49, N-[(1S)-1-cyclohexyl-2-[4-(3,5-dimethyl-1H-pyrazol-4-yl)anilino]-2-oxo-ethyl]-3-methyl-imidazole-4-carboxamide] and `Cc1n[nH]c(C)c1-c1ccc(NC(=O)C(NC(=O)c2ccnn2C)C2CCCCCCC2)cc1` (single isomer, unassigned) [Example 157, N-[1-cyclooctyl-2-[4-(3,5-dimethyl-1H-pyrazol-4-yl)anilino]-2-oxo-ethyl]-2-methyl-pyrazole-3-carboxamide] cannot be ordered by EC50: greater than 1000 nM for the first, greater than 1000 nM for the second.

`Cc1n[nH]c(C)c1-c1ccc(NC(=O)[C@@H](NC(=O)c2ccnn2C(C)C)C2CCCCC2)cc1` [Example 10, N-[(1S)-1-cyclohexyl-2-[4-(3,5-dimethyl-1H-pyrazol-4-yl)anilino]-2-oxo-ethyl]-2-isopropyl-pyrazole-3-carboxamide] and `CCn1nccc1C(=O)NC(C(=O)Nc1ccc(-c2c(C)n[nH]c2C)cc1)C1CCCCCCC1` (single isomer, unassigned) [Example 155, N-[1-cyclooctyl-2-[4-(3,5-dimethyl-1H-pyrazol-4-yl)anilino]-2-oxo-ethyl]-2-ethyl-pyrazole-3-carboxamide] cannot be ordered by EC50: less than 100 nM for the first, less than 100 nM for the second.

`Cc1ncn(C)c1-c1ccc(NC(=O)[C@@H](NC(=O)c2ccnn2C(C)C)C(C2CC2)C2CC2)cc1` [Example 403, N-[(1S)-1-(dicyclopropylmethyl)-2-[4-(3,5-dimethylimidazol-4-yl)anilino]-2-oxo-ethyl]-2-isopropyl-pyrazole-3-carboxamide] and `Cc1ncoc1-c1ccc(NC(=O)[C@@H](NC(=O)c2ccnn2C(C)C)C(C2CC2)C2CC2)cc1` [Example 361, N-[(1S)-1-(dicyclopropylmethyl)-2-[4-(4-methyloxazol-5-yl)anilino]-2-oxo-ethyl]-2-isopropyl-pyrazole-3-carboxamide] fall in the same range of EC50: 100 to 1000 nM for the first, 100 to 1000 nM for the second.

First: Cn1cncc1-c1ccc(NC(=O)C(NC(=O)c2ccnn2C)C(c2cccc(Cl)c2)c2cccc(Cl)c2)cc1 (single isomer, unassigned) [Example 373A, N-(1,1-Bis(3-chlorophenyl)-3-((4-(1-methyl-1H-imidazol-5-yl)phenyl)amino)-3-oxopropan-2-yl)-1-methyl-1H-pyrazole-5-carboxamide]
Second: Cn1cncc1-c1ccc(NC(=O)[C@H](Cc2cc(C#N)ccc2Cl)NC(=O)c2ccnn2C)cc1 [Example 342, N-[(1S)-1-[(2-chloro-5-cyano-phenyl)methyl]-2-[4-(3-methylimidazol-4-yl)anilino]-2-oxo-ethyl]-2-methyl-pyrazole-3-carboxamide]
The EC50 of the first is lower: 100 to 1000 nM for the first, greater than 1000 nM for the second.

Compared with `Cc1n[nH]c(C)c1-c1ccc(NC(=O)[C@@H](NC(=O)c2ccnn2C)[C@H]2CCCc3ccc(C#N)cc32)cc1` [Example 82, N-[(1S)-1-[(1S)-7-cyanotetralin-1-yl]-2-[4-(3,5-dimethyl-1H-pyrazol-4-yl)anilino]-2-oxo-ethyl]-2-methyl-pyrazole-3-carboxamide], `Cc1n[nH]c(C)c1-c1ccc(NC(=O)[C@@H](NC(=O)c2ccnn2C(C)C)[C@H]2CCOc3ccc(F)cc32)cc1` [Example 289, N-[(1S)-2-[4-(3,5-dimethyl-1H-pyrazol-4-N yl)anilino]-1-[(4S)-6-fluorochroman-4-yl]-2-oxo-ethyl]-2-isopropyl-pyrazole-3-carboxamide] is lower in EC50: 100 to 1000 nM for the first, less than 100 nM for the second.

Compared with `Cc1n[nH]c(C)c1-c1ccc(NC(=O)[C@@H](NC(=O)c2cnc3ncccn23)C2CCCCC2)cc1` [Example 72, N-[(1S)-1-cyclohexyl-2-[4-(3,5-dimethyl-1H-pyrazol-4-yl)anilino]-2-oxo-ethyl]imidazo[1,2-a]pyrimidine-3-carboxamide], `Cc1n[nH]c(C)c1-c1ccc(NC(=O)[C@@H](NC(=O)c2cnn3ncccc23)C2CCCCC2)cc1` [Example 70, N-[(1S)-1-cyclohexyl-2-[4-(3,5-dimethyl-1H-pyrazol-4-yl)anilino]-2-oxo-ethyl]pyrazolo[1,5-b]pyridazine-3-carboxamide] is lower in EC50: greater than 1000 nM for the first, 100 to 1000 nM for the second.

`CC(C)c1n[nH]c(C(C)C)c1-c1ccc(NC(=O)[C@@H](NC(=O)c2ccnn2C(C)C)C(C2CC2)C2CC2)cc1` [Example 387, N-[(1S)-1-(dicyclopropylmethyl)-2-[4-(3,5-diisopropyl-1H-pyrazol-4-yl)anilino]-2-oxo-ethyl]-2-isopropyl-pyrazole-3-carboxamide] and `Cc1n[nH]c(C)c1-c1ccc(NC(=O)[C@@H](NC(=O)c2ccnn2C(C)CO)C(C2CCC2)C2CCC2)cc1` (single isomer, unassigned) [Example 124] cannot be ordered by EC50: less than 100 nM for the first, less than 100 nM for the second.

`CCn1nccc1C(=O)N[C@H](C(=O)Nc1ccc(-c2c(C)n[nH]c2C)cc1)C1C2CC3CC(C2)CC1C3` (stereo partly drawn) [Example 201, N-[(1S)-1-(2-adamantyl)-2-[4-(3,5-dimethyl-1H-pyrazol-4-yl)anilino]-2-oxo-ethyl]-2-ethyl-pyrazole-3-carboxamide] and `Cc1n[nH]c(C)c1-c1ccc(NC(=O)[C@@H](NC(=O)c2ccnn2CCCO)C(C2CC2)C2CC2)cc1` [Example 102, N-[(1S)-1-(dicyclopropylmethyl)-2-[4-(3,5-dimethyl-1H-pyrazol-4-yl)anilino]-2-oxo-ethyl]-2-(3-hydroxypropyl)pyrazole-3-carboxamide] cannot be ordered by EC50: less than 100 nM for the first, less than 100 nM for the second.

First: Cc1n[nH]c(C)c1-c1ccc(NC(=O)[C@@H](NC(=O)c2ccnn2C(C)C)[C@H]2CCOc3c(F)cc(F)cc32)cc1 [Example 279, N-[(1S)-1-[(4S)-6,8-difluorochroman-4-yl]-2-[4-(3,5-dimethyl-1H-pyrazol-4-yl)anilino]-2-oxo-ethyl]-2-isopropyl-pyrazole-3-carboxamide]
Second: Cc1n[nH]c(C)c1-c1ccc(NC(=O)[C@@H](NC(=O)c2ccnn2C)C(C)C(C)C)cc1 (stereo partly shown) [Example 197]
The EC50 of the first is lower: less than 100 nM for the first, 100 to 1000 nM for the second. The first is the more potent here.

First: Cn1cncc1-c1ccc(NC(=O)[C@@H](NC(=O)OC(C)(C)C)C2CCCC2)cc1 [Example 98, tert-butyl N-[(1S)-1-cyclopentyl-2-[4-(3-methylimidazol-4-yl)anilino]-2-oxo-ethyl]carbamate]
Second: Cc1n[nH]c(C)c1-c1ccc(NC(=O)[C@@H](NC(=O)c2cn(C)c3ncccc23)C2CCCCC2)cc1 [Example 71, N-[(1S)-1-cyclohexyl-2-[4-(3,5-dimethyl-1H-pyrazol-4-yl)anilino]-2-oxo-ethyl]-1-methyl-pyrrolo[2,3-b]pyridine-3-carboxamide]
The EC50 of the first is higher: greater than 1000 nM for the first, 100 to 1000 nM for the second. The second is the more potent here.

First: Cc1n[nH]c(C)c1-c1ccc(NC(=O)[C@@H](NC(=O)N2CCCC2CCCO)C2CCCCC2)cc1 (stereo partly drawn) [Example 468, N-[(1S)-1-cyclohexyl-2-[4-(3,5-dimethyl-1H-pyrazol-4-yl)anilino]-2-oxo-ethyl]-2-(3-hydroxypropyl)-pyrrolidine-1-carboxamide]
Second: Cc1n[nH]c(C)c1-c1ccc(NC(=O)[C@@H](NC(=O)O[C@H](C)CC[C@@H](C)O)C(C2CC2)C2CC2)cc1 [Example 480, [(1R,4R)-4-hydroxy-1-methyl-pentyl] N-[(1S)-1-(dicyclopropylmethyl)-2-[4-(3,5-dimethyl-1H-pyrazol-4-yl)anilino]-2-oxo-ethyl]carbamate]
The EC50 of the first is higher: greater than 1000 nM for the first, 100 to 1000 nM for the second.

`Cc1n[nH]c(C)c1-c1ccc(NC(=O)C(NC(=O)c2ccnn2C)C(c2ccccc2)C2CC2)cc1` (single isomer, unassigned) [Example 301, N-[1-[cyclopropyl(phenyl)methyl]-2-[4-(3,5-dimethyl-1H-pyrazol-4-yl)anilino]-2-oxo-ethyl]-2-methyl-pyrazole-3-carboxamide] showed an EC50 of 100 to 1000 nM.
